Data taken from ChEMBL document CHEMBL4402540, “Structure-Activity Relationship Studies of Small Molecule Modulators of the Staphylococcal Accessory Gene Regulator” (J Med Chem, 2020).
One block for each compound: values may come before it. Where a SMILES comes first, the peptide text is derived from it. Bridges are numbered along the chain shown (N, C = ends). [ ]: non-standard residue; d: D form. The star is where a group is joined. X2 = O=C(c1ccccc1)c1ccc(OCCCC(=O)*)cc1; Dap = NC[C@H](N)C(=O)O

Experiments:
[1] = Inhibition of AgrC-2 in Staphylococcus aureus RN9372 by beta-lactamase reporter gene assay
[2] = Inhibition of AgrC-2 in Staphylococcus aureus RN9532 by beta-lactamase reporter gene assay
[3] = Agonist activity at AgrC-4 in Staphylococcus aureus RN9371 by beta-lactamase reporter gene assay
[4] = target: T1, Chloramphenicol acetyltransferase (Staphylococcus epidermidis) (UniProt D2JCN2); experiment: Activation of Chloramphenicol acetyltransferase activity in Staphylococcus epidermidis Tu3298 at 200 nM and measured every 15 sec for 20 mins (reference value: 12.5 U/mg)
T1 sequence (whole entry): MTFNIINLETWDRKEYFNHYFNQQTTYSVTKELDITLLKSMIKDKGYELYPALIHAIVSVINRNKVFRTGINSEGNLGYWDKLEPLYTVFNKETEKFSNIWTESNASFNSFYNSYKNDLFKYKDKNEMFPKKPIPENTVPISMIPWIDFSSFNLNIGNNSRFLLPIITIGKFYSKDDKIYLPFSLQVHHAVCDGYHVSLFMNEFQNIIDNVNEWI

[5] = Inhibition of AgrC-1 in Staphylococcus aureus
[6] = Inhibition of AgrC-2 in Staphylococcus aureus
[7] = Inhibition of AgrC-3 in Staphylococcus aureus
[8] = Inhibition of AgrC-4 in Staphylococcus aureus
Staphylococcus aureus [9] = experiment: Agonist activity at AgrC-4 in Staphylococcus aureus RN9371 incubated for 60 to 90 mins by beta-lactamase reporter gene assay
Staphylococcus aureus [10] = experiment: Agonist activity at AgrC-1 in Staphylococcus aureus RN9222 incubated for 60 to 90 mins by beta-lactamase reporter gene assay
[11] = Inhibition of AgrC-2 in Staphylococcus aureus RN9372 incubated for 60 to 90 mins in presence of AIP agonist by beta-lactamase reporter gene assay
[12] = Agonist activity at AgrC-3 in Staphylococcus aureus incubated for 60 to 90 mins in presence of AIP agonist by beta-lactamase reporter gene assay
[13] = Inhibition of AgrC-1 in Staphylococcus aureus AH1677 incubated for 24 hrs by fluorescence assay
[14] = Inhibition of AgrC-2 in Staphylococcus aureus AH430 incubated for 24 hrs by fluorescence assay
[15] = Inhibition of AgrC-3 in Staphylococcus aureus AH1747 incubated for 24 hrs by fluorescence assay
[16] = Inhibition of AgrC-4 in Staphylococcus aureus AH1872 incubated for 24 hrs by fluorescence assay
[17] = Drug degradation in ammonium carbonate solution 0.3 mg after 24 hrs after RP-HPLC analysis; type: physicochemical; conditions: read-out: Drug degradation
[18] = Drug degradation in ammonium carbonate solution 0.3 mg after 72 hrs after RP-HPLC analysis; type: physicochemical; conditions: read-out: Drug degradation
[19] = Inhibition of AgrC-1 Staphylococcus aureus RN10829 incubated for 45 mins by beta-lactamase reporter gene assay
[20] = Inhibition of AgrC-1 Staphylococcus aureus RN6390B by agr-blaZ reporter gene assay
[21] = Inhibition of AgrC-2 Staphylococcus aureus SA564 by agr-blaZ reporter gene assay
[22] = target: T2, Receptor-histidine kinase AgrC (Staphylococcus aureus, UniProt O07911); experiment: Inhibition of AgrC in mid-exponential phase Staphylococcus aureus RN6390B assessed as beta-lactamase activity incubated for 80 mins by spectrophotometric method
T2 sequence (O07911 whole entry): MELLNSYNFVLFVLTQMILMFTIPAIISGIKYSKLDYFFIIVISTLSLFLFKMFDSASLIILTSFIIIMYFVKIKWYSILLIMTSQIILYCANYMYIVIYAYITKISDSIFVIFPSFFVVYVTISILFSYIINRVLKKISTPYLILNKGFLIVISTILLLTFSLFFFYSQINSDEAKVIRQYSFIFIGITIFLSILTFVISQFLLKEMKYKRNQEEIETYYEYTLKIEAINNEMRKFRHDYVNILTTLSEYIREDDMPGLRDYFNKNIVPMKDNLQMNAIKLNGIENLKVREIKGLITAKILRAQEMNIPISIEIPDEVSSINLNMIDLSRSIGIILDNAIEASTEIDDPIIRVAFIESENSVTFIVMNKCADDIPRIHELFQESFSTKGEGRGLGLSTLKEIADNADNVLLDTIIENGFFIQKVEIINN

[23] = target: T3, Receptor-histidine kinase AgrC (Staphylococcus aureus) (UniProt O07911); experiment: Activation of AgrC in early exponential phase Staphylococcus aureus SA502A assessed as beta-lactamase activity incubated for 55 mins by spectrophotometric method
T3 sequence (whole entry): T2 sequence (O07911 whole entry)

[24] = target: T2, Receptor-histidine kinase AgrC; experiment: Inhibition of AgrC in mid-exponential phase Staphylococcus aureus RN8463 assessed as beta-lactamase activity incubated for 80 mins by spectrophotometric method
Staphylococcus aureus [25] = experiment: Agonist activity at AgrC-2 in Staphylococcus aureus RN9372 incubated for 60 to 90 mins by beta-lactamase reporter gene assay
[26] = Inhibition of AgrC-1 in Staphylococcus aureus RN9222 incubated for 60 to 90 mins in presence of AIP agonist by beta-lactamase reporter gene assay
[27] = Agonist activity at AgrC-4 in Staphylococcus aureus RN9371 incubated for 60 to 90 mins in presence of AIP agonist by beta-lactamase reporter gene assay
Staphylococcus aureus [28] = experiment: Inhibition of AIP biosynthesis in methicillin-resistant Staphylococcus aureus USA300 incubated for 16 hrs by LC-MS analysis; type: functional, organism-based; conditions: USA300, 16 h
Staphylococcus aureus [29] = experiment: Antibacterial activity against methicillin-resistant Staphylococcus aureus infected in BALB/c mouse assessed as reduction in skin ulcer formation at 25 ug, id after 4 days relative to control; type: functional; set-up: scale not given: the % may be the effect or the level left
Staphylococcus aureus [30] = experiment: Antibacterial activity against methicillin-resistant Staphylococcus aureus infected in BALB/c mouse assessed as reduction in skin ulcer formation at 5 ug, id after 4 days relative to control; type: functional; set-up: scale not given: the % may be the effect or the level left

IC50 [1]: > 1000 nM
IC50 [2]: 13 nM
IC50 [3]: > 1000 nM
Activity [4]: 53.3 U/mg
SMILES: CC(C)[C@H](NC(=O)[C@H](CO)NC(=O)[C@@H](N)CC(=O)O)C(=O)N[C@H]1CSC(=O)[C@H](Cc2ccccc2)NC(=O)[C@H](Cc2ccc(O)cc2)NC(=O)[C@H](CO)NC(=O)[C@H](C)NC1=O (H-DSVCASYF; thioester 4-C)

IC50 [5]: 5 nM
IC50 [6]: 5 nM
IC50 [7]: 0.1 nM
IC50 [8]: 5 nM
SMILES: CC[C@H](C)[C@H]1NC(=O)[C@@H](Cc2ccccc2)NC(=O)[C@@H](C)NC(=O)[C@H](NC(C)=O)CSC(=O)[C@@H](CCSC)NC1=O

SMILES: CC[C@H](C)[C@@H]1NC(=O)[C@H](Cc2ccccc2)NC(=O)[C@H](Cc2ccc(O)cc2)NC(=O)[C@@H](NC(=O)[C@@H](NC(=O)[C@H](CO)NC(=O)[C@@H](N)Cc2ccc(O)cc2)[C@@H](C)O)CSC(=O)[C@H](CCSC)NC1=O (H-YSTCYFIM; thioester 4-C)
ED50 (Staphylococcus aureus [9]): 13 nM
ED50 (Staphylococcus aureus [10]): 62 nM
IC50 [11]: 4 nM
IC50 [12]: 1 nM

IC50 [13]: 1.2 nM
IC50 [14]: 2.19 nM
IC50 [15]: 0.0551 nM
IC50 [16]: 0.192 nM
degraded at 24 h [17]: 10%
degraded at 72 h [18]: 40%
SMILES: CC[C@H](C)[C@H](N)C(=O)N[C@@H](CC(N)=O)C(=O)N[C@H]1CNC(=O)[C@H](CC(C)C)NC(=O)[C@H](CC(C)C)NC(=O)[C@H](Cc2ccccc2)NC(=O)[C@H](C)NC1=O (H-IN[Dap]AFLL; lactam 3-C)

SMILES: CC(C)C[C@H]1NC(=O)[C@@H](Cc2ccccc2)NC(=O)[C@@H](CC(=O)O)NC(=O)[C@@H](NC(=O)[C@@H](Cc2ccccc2)NC(=O)[C@@H]2CCCN2C(=O)[C@H](N)Cc2ccc(O)cc2)CSC(=O)[C@@H](CC(C)C)NC1=O
IC50 [19]: 0.31 nM

IC50 [20]: 21 nM
IC50 [21]: 4 nM
SMILES: CC[C@H](C)[C@@H]1NC(=O)[C@H](Cc2ccccc2)NC(=O)[C@H](C)NC(=O)[C@@H](NC(=O)[C@@H](NC(=O)[C@H](CO)NC(=O)CCCOc2ccc(C(=O)c3ccccc3)cc2)[C@@H](C)O)CSC(=O)[C@H](CCSC)NC1=O (X2-STCAFIM; thioester 3-C)

SMILES: CC[C@H](C)[C@H]1NC(=O)[C@@H](Cc2ccccc2)NC(=O)[C@@H](C)NC(=O)[C@H](NC(=O)[C@H](NC(=O)[C@@H](CO)NC(=O)[C@H](N)Cc2ccc(O)cc2)[C@@H](C)O)CSC(=O)[C@@H](CCSC)NC1=O
IC50 [5]: 5 to 303 nM
IC50 [6]: 8 to 18 nM
IC50 [7]: 0.3 nM
IC50 [8]: 3 nM

SMILES: CC(C)C[C@@H]1NC(=O)[C@H](CO)NC(=O)[C@H](CO)NC(=O)[C@@H](NC(=O)[C@H](C)NC(=O)[C@H](CC(N)=O)NC(=O)[C@@H](NC(=O)CN)C(C)C)CSC(=O)[C@H](Cc2ccccc2)NC1=O (H-GVNACSSLF; thioester 5-C)
IC50 [22]: 2.9 nM
ED50 [23]: 3.6 nM
IC50 [24]: 3.2 nM
ED50 (Staphylococcus aureus [25]): 30 nM
IC50 [26]: 40 nM
IC50 [12]: 1 nM
IC50 [27]: 86 nM
IC50 [19]: 12 nM

SMILES: CCCCC/C=C/C1=C(CO)[C@@H](O)[C@H]2O[C@@]2(C/C=C(\C)C(=O)O)C1=O
IC50 (Staphylococcus aureus [28]): 2500 nM
Activity (Staphylococcus aureus [29]): 100%
Activity (Staphylococcus aureus [30]): 50%
